Source: ChEMBL document CHEMBL5257080, “Optimization of physicochemical properties of pyrrolidine GPR40 AgoPAMs results in a differentiated profile with improved pharmacokinetics and reduced off-target activities” (Bioorg Med Chem, 2023)
In brackets after ≈: the same amount, converted by molar mass. Activity calls are given as the source filed them. The rule behind the calls is not given here.

Assays:
[1] = Toxicity in Sprague-Dawley rat assessed as islet cell cytoplasmic alteration at 60 mg/kg, po measured for 1 months; format: organism-based; details: in vivo, 730 h
[2] = Toxicity in Sprague-Dawley rat assessed as decrease in islet number at 300 mg/kg, po measured for 1 months; format: organism-based; details: in vivo, 730 h
[3] = Solubility of the compound in FeSSIF at pH 6.5; format: ADME
[4] = Cmax in rat at 160 mg/kg bid; format: ADME, organism-based; design: dose 160 mg/kg; details: in vivo
[5] = Toxicity in Sprague-Dawley rat assessed as effect on pancrease at AUC measured for 1 months; details: in vivo, 730 h
[6] = Solubility in phosphate buffer at pH 6.5; format: physicochemical
[7] = Cmax in rat at 400 mg/kg bid; format: ADME, organism-based; design: dose 400 mg/kg; details: in vivo
[8] = Permeability of compound across apical to basolateral side in dog MDCK cells; format: ADME, cell-based, Canis lupus familiaris; details: read-out: permeability
Cytochrome P450 2C9 = Cytochrome P450 2C9 (Homo sapiens, UniProt P11712); test: Inhibition of CYP2C9 in human liver microsomes; format: ADME, Microsome
Sequence of Cytochrome P450 2C9 (P11712 whole entry): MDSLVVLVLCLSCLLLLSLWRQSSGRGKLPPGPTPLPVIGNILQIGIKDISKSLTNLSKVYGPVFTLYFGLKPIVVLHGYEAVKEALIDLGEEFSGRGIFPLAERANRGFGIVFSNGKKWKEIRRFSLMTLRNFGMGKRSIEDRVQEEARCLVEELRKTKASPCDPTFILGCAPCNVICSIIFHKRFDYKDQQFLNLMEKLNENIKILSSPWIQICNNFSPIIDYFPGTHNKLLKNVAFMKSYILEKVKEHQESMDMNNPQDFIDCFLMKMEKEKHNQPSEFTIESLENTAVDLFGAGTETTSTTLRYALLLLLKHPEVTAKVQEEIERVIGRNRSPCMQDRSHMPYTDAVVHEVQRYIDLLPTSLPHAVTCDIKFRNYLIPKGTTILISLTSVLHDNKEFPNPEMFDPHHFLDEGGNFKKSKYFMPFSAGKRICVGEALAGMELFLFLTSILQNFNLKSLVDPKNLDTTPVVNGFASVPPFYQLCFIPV

[9] = Toxicity in rat assessed as NOAEL by measuring AUC (0 to 24 hrs) measured for 28 days; details: in vivo, time 28 day
[10] = Tmax in rat at 40 mg/kg bid; format: ADME, organism-based; details: in vivo
[11] = Solubility of the compound in FeSSIF at pH 5; format: ADME
[12] = Toxicity in Sprague-Dawley rat assessed as decrease in islet size at 300 mg/kg, po measured for 1 months; format: organism-based; design: scale not given: the % may be the effect or the level left; details: in vivo, 730 h
[13] = Tmax in rat at 400 mg/kg bid; format: ADME, organism-based; details: in vivo
Rattus norvegicus [14] = test: Hyperglycemic activity in Sprague-Dawley rat assessed as effect on blood glucose level at 150 mg/kg, qd by glucometer; format: functional, organism-based
[15] = Toxicity in Sprague-Dawley rat assessed as effect on pancrease at 300 mg/kg, po measured for 1 months; format: organism-based; details: in vivo, 730 h
Cytochrome P450 2B6 = target: T1, Cytochrome P450 2B6 (Homo sapiens, UniProt P20813); test: Inhibition of CYP2B6 in human liver microsomes; format: ADME, Microsome
T1 sequence (P20813 whole entry): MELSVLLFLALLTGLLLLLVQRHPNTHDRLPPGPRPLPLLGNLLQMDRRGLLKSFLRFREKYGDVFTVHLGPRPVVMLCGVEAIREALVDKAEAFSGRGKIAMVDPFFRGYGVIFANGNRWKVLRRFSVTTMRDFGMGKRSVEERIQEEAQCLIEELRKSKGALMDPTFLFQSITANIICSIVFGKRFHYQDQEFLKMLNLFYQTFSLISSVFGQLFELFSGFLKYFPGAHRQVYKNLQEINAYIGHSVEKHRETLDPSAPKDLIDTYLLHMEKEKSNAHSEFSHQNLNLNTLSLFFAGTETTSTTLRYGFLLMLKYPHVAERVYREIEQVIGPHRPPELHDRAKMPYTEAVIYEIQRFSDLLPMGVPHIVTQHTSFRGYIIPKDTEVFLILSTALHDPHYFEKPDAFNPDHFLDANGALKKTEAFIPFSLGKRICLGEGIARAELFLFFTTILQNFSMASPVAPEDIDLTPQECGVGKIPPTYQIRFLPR

[16] = AUC (0 to 24 hrs) in rat at 150 mg/kg, po bid; format: ADME, organism-based; design: dose 150 mg/kg, route po; details: in vivo
[17] = Tmax in rat at 160 mg/kg bid; format: ADME, organism-based; details: in vivo
[18] = Solubility of the compound in FaSSIF at pH 6.5; format: ADME
[19] = Cmax in rat at 40 mg/kg bid; format: ADME, organism-based; design: dose 40 mg/kg; details: in vivo
[20] = AUC (0 to 24 hrs) in rat at 40 mg/kg bid; format: ADME, organism-based; design: dose 40 mg/kg; details: in vivo
Cytochrome P450 2C19 = Cytochrome P450 2C19 (Homo sapiens, UniProt P33261); test: Inhibition of CYP2C19 in human liver microsomes; format: ADME, Microsome
Sequence of Cytochrome P450 2C19 (P33261 whole entry): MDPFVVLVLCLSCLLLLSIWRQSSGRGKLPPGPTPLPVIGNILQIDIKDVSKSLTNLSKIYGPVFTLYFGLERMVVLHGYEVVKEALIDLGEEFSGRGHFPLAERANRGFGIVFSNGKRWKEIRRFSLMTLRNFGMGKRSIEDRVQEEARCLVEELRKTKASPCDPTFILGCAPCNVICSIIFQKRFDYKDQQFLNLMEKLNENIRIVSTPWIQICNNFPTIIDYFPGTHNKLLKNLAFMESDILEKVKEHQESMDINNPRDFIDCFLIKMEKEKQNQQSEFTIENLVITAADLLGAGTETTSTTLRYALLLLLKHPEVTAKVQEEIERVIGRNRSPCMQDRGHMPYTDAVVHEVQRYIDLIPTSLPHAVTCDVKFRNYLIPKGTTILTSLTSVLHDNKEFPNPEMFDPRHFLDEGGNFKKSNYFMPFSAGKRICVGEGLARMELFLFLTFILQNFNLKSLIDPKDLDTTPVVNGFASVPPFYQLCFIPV

[21] = Toxicity in cynomolgus monkey assessed as effect on pancrease at 30 mg/kg, po measured for 1 months; format: organism-based, Macaca fascicularis; details: in vivo, 730 h
[22] = AUC (0 to 24 hrs) in rat at 400 mg/kg bid; format: ADME, organism-based; design: dose 400 mg/kg; details: in vivo
[23] = target: Free fatty acid receptor 1 (Homo sapiens, UniProt O14842); test: Positive allosteric modulation of human GPR40 expressed in HEK293 cells assessed as cAMP accumulation; format: cell-based
Sequence of Free fatty acid receptor 1 (O14842 whole entry): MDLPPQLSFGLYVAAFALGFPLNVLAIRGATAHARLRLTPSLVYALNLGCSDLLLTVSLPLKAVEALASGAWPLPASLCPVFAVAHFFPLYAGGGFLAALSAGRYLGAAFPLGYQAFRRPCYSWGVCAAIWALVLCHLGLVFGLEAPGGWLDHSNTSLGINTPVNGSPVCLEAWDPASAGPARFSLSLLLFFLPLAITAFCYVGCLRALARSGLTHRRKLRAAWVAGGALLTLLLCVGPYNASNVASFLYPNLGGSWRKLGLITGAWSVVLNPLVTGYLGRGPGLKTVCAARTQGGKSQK

[24] = AUC (0 to 24 hrs) in rat at 160 mg/kg bid; format: ADME, organism-based; design: dose 160 mg/kg; details: in vivo
Cytochrome P450 3A4 = Cytochrome P450 3A4 (Homo sapiens, UniProt P08684); test: Inhibition of CYP3A4 in human liver microsomes; format: ADME, Microsome
Sequence of Cytochrome P450 3A4 (P08684 whole entry): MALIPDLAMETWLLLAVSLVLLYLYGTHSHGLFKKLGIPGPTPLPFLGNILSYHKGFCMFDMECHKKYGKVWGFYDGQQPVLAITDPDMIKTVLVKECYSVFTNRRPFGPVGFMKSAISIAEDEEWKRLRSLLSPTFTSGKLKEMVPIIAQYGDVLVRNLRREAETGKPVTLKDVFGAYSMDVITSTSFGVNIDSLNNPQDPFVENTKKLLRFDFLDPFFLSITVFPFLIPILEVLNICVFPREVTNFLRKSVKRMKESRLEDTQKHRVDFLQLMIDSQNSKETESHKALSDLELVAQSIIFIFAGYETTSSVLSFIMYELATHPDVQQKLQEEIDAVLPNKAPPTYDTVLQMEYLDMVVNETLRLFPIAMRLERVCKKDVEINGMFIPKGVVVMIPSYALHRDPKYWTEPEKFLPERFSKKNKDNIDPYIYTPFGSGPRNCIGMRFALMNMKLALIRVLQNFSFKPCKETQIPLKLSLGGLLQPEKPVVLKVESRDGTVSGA

Cytochrome P450 2C8 = target: T2, Cytochrome P450 2C8 (Homo sapiens, UniProt P10632); test: Inhibition of CYP2C8 in human liver microsomes; format: ADME, Microsome
T2 sequence (P10632 whole entry): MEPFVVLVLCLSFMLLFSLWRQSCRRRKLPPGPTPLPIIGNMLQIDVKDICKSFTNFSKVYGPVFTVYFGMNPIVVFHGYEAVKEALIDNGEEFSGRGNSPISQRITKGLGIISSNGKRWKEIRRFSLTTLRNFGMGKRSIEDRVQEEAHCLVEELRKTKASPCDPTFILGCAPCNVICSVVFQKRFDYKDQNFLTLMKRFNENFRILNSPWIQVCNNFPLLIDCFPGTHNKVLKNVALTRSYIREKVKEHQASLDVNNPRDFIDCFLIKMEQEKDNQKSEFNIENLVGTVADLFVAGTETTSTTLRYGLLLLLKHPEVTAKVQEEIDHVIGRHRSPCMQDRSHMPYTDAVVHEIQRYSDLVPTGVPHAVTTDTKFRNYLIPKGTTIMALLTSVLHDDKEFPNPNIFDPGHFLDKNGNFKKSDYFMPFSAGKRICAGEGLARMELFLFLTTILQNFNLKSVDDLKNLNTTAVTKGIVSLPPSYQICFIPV

Cytochrome P450 2D6 = Cytochrome P450 2D6 (Homo sapiens, UniProt P10635); test: Inhibition of CYP2D6 in human liver microsomes; format: ADME, Microsome
Sequence of Cytochrome P450 2D6 (P10635 whole entry): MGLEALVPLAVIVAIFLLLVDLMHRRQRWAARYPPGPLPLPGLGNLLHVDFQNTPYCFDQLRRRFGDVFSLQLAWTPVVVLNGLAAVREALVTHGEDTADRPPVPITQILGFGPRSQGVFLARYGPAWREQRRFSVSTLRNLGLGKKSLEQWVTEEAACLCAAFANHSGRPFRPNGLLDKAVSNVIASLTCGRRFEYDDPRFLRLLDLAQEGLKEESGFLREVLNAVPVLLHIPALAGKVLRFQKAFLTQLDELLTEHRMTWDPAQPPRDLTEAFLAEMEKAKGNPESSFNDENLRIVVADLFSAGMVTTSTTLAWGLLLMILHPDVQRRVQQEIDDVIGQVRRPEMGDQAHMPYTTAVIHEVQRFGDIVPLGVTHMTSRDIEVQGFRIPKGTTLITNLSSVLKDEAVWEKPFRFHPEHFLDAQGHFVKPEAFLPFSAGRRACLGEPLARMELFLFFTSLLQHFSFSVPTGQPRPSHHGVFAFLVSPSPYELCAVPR

Rattus norvegicus [25] = test: Anti-hyperglycemic activity against Sprague-Dawley rat assessed as reduction in plasma glucose AUC at 0.3 mg/kg, po measured for 20 to 120 mins by OGTT analysis; format: functional, organism-based; details: time lower 20.0 min, time upper […]

Compound: COc1cc(N2CC[C@@H](Oc3ccc(N4N=C(C(F)(F)F)[C@@H](C)[C@@H]4CC(=O)O)cc3)[C@H](C)C2)c(Cl)cn1
- Activity [1]: Toxic
- Activity [2]: Toxic
- solubility [3]: 59 µg/mL (≈ 109 µM)
- Cmax [4]: 106 µM
- Activity [5]: Non-Toxic
- solubility [6]: 1 µg/mL (≈ 1.85 µM)
- Cmax [7]: 271 µM
- Papp A→B [8]: 14.2 ×10⁻⁶ cm/s
- IC50 (Cytochrome P450 2C9): 14 µM
- AUC at […] [9]: 404 µM·h
- Tmax [10]: 8 h
- solubility [11]: 8 µg/mL (≈ 14.8 µM)
- Activity [12]: 50%
- Tmax [13]: 8 h
- Activity (Rattus norvegicus [14]): Active
- Activity [15]: Non-Toxic
- IC50 (Cytochrome P450 2B6): 8.1 µM
- AUC [16]: 557 µM·h
- Tmax [17]: 8 h
- solubility [18]: 9 µg/mL (≈ 16.6 µM)
- Cmax [19]: 64 µM
- AUC [20]: 549 µM·h
- IC50 (Cytochrome P450 2C19): 38 µM
- Activity [21]: Non-Toxic
- AUC [22]: 3370 µM·h
- EC50 [23]: 3.6 µM
- AUC [24]: 1100 µM·h
- IC50 (Cytochrome P450 3A4): 3.4 µM
- IC50 (Cytochrome P450 2C8): 1.7 µM
- IC50 (Cytochrome P450 2D6): 40 µM
- Activity (Rattus norvegicus [25]): inactive
